Measured values reported in article PMC6354820 (Endocrinology, Diabetes & Metabolism, 2018).

Legend:
[1] = target: Kir6.2 (pore subunit of the pancreatic beta-cell KATP channel) (Mus musculus, UniProt Q61743); assay: inside-out patch-clamp, single-channel NPo concentration-effect; assay type: cell-based
[2] = target: SUR1 (sulphonylurea receptor subunit of the pancreatic beta-cell KATP channel) (Mus musculus, UniProt B2RUS7); assay: standard whole-cell patch-clamp, block by a single concentration; assay type: cell-based; conditions: read-out: % inhibition at 20 μmol/L
Chain of SUR1 (sulphonylurea receptor subunit of the pancreatic beta-cell KATP channel) (B2RUS7 1-1588): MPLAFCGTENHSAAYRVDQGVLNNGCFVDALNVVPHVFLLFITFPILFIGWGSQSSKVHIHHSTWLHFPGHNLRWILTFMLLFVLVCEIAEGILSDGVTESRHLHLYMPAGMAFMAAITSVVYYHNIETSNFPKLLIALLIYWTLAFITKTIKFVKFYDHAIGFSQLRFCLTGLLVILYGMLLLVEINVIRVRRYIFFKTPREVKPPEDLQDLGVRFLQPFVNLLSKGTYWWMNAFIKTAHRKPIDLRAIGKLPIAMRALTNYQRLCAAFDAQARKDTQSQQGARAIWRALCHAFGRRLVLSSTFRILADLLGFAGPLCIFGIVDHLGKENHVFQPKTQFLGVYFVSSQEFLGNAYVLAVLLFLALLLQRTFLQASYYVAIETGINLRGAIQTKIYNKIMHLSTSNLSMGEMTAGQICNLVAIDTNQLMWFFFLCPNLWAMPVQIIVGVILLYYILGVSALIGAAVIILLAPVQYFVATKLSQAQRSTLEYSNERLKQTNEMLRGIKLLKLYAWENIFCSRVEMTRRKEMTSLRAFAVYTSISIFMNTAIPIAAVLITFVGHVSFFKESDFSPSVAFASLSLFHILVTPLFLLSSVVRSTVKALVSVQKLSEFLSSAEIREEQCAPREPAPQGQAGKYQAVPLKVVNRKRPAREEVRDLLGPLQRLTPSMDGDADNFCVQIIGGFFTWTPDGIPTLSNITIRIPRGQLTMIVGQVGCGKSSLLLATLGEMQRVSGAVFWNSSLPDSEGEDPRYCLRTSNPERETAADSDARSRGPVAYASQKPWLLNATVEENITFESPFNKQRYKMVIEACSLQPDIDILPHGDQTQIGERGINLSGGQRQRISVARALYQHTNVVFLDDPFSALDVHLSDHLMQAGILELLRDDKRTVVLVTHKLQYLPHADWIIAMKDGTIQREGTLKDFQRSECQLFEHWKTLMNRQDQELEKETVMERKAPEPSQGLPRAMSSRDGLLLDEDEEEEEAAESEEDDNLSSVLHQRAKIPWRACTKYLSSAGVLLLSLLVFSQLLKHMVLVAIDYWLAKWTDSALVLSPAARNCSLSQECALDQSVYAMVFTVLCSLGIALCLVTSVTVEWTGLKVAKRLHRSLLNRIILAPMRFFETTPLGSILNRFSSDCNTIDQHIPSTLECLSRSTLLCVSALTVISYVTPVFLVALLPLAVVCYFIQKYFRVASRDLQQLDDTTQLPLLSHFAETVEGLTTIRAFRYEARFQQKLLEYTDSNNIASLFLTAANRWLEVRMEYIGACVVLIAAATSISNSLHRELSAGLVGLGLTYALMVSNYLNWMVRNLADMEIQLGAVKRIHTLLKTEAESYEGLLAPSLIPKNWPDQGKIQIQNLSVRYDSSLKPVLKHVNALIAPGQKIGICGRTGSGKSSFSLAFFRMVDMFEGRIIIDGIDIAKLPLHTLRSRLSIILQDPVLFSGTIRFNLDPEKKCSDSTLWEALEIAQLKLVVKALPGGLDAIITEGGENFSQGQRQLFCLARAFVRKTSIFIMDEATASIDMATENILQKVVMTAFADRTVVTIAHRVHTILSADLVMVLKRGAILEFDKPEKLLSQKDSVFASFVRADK
Chain of SUR1 (sulphonylurea receptor subunit of the pancreatic beta-cell KATP channel) (Q61743 whole entry partner): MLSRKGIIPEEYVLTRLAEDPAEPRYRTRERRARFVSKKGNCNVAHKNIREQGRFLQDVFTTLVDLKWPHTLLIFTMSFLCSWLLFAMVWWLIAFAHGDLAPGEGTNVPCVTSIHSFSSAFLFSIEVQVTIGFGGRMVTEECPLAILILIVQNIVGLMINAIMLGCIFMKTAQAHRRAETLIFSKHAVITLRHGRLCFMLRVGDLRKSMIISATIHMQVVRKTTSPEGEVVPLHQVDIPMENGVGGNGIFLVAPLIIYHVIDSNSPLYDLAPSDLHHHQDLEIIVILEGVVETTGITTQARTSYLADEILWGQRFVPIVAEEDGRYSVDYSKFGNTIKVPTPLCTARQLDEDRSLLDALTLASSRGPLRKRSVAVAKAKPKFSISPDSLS

Chain of Kir6.2 (pore subunit of the pancreatic beta-cell KATP channel) (Q61743 whole entry): as the sequence (Q61743 whole entry partner) above
Chain of Kir6.2 (pore subunit of the pancreatic beta-cell KATP channel) (B2RUS7 1-1588 partner): as the sequence (B2RUS7 1-1588) above

| SMILES | IC50 [1] | inhibition at 20 µM [2] |
| --- | --- | --- |
| CCC(C)(C)C(=O)O[C@H]1C[C@@H](C)C=C2C=C[C@H](C)[C@H](CC[C@@H]3C[C@@H](O)CC(=O)O3)[C@H]21 [Sim, simvastatin] | 26 nM | – |
| CCCCNC(=O)NS(=O)(=O)c1ccc(C)cc1 [Tb, tolbutamide] | – | 43 ± 3.3% |
